Assay results published in patent publication US20250098679A1, “HERBICIDAL PYRIDONE DERIVATIVES” (SYNGENTA CROP PROTECTION AG, priority 2021, published 2025).

Legend:
Format in all cases: in vivo
Conditions in all cases: evaluated after 13 days
[1] = tested on: Echinochloa crus-galli (ECHCG); assay: Post-emergence Test, Echinochloa crus-galli (ECHCG); set-up: key to percentage damage caused to the plant, ECHCG (five-point scale): 5=81-100%, 4=61-80%, 3=41-60%, 2=21-40%, 1=0-20% damage
Description: (§1) Seeds of a variety of test species are sown in standard soil in pots (Setaria faberi (SETFA), Echinochloa crus-galli (ECHCG), Zea mays (ZEAMX), Ipomoea hederacea (IPOHE), Amaranthus palmeri (AMAPA), Amaranthus retoflexus (AMARE)). After 8 days cultivation under controlled conditions in a glasshouse (at 24° C./16° C., day/night; 14 hours light; 65% humidity), the plants are sprayed with an aqueous spray solution derived from the formulation of the technical active ingredient in acetone/water (50:50) solution containing 0.5% Tween 20 (polyoxyethelyene sorbitan monolaurate, CAS RN 9005-64-5). Compounds are applied at 1000 g/ha unless otherwise stated. The test plants are then grown in a glasshouse under controlled conditions in a glasshouse (at 24° C./16° C., day/night; 14 hours light; 65% humidity) and watered twice daily. After 13 days the test is evaluated for the percentage damage caused to the plant. The biological activities are shown in the following table on a five-point scale (5=81-100%; 4=61-80%; 3=41-60%; 2=21-40%; 1=0-20%; -=not tested).

[2] = tested on: Amaranthus palmeri (AMAPA); assay: Post-emergence Test, Amaranthus palmeri (AMAPA); set-up: key: 5=81-100%, 4=61-80%, 3=41-60%, 2=21-40%, 1=0-20% damage
Description: as §1

[3] = tested on: Ipomoea hederacea (IPOHE); assay: Post-emergence Test, Ipomoea hederacea (IPOHE); set-up: key to percentage damage caused to the plant, IPOHE (five-point scale): 5=81-100%, 4=61-80%, 3=41-60%, 2=21-40%, 1=0-20% damage
Description: as §1

[4] = tested on: Amaranthus retoflexus (AMARE); assay: Post-emergence Test, Amaranthus retoflexus (AMARE); set-up: key to percentage damage caused to the plant, AMARE (five-point scale): 5=81-100%, 4=61-80%, 3=41-60%, 2=21-40%, 1=0-20% damage
Description: as §1

Setaria faberi (SETFA) = assay: Post-emergence Test, Setaria faberi (SETFA); set-up: key to percentage damage caused to the plant, SETFA (five-point scale): 5=81-100%, 4=61-80%, 3=41-60%, 2=21-40%, 1=0-20% damage
Description: as §1

Zea mays (ZEAMX) = assay: Post-emergence Test, Zea mays (ZEAMX); set-up: key to percentage damage caused to the plant, ZEAMX (five-point scale): 5=81-100%, 4=61-80%, 3=41-60%, 2=21-40%, 1=0-20% damage
Description: as §1

CCOC(=O)c1c(-c2ccc(Cl)c(Cl)c2)n(CC)c(Cn2cnc(Cl)c2Cl)cc1=O [Compound 68, ethyl 6-[(4,5-dichloroimidazol-1-yl)methyl]-2-(3,4-dichlorophenyl)-1-ethyl-4-oxo-pyridine-3-carboxylate]
percentage damage caused to the plant, ECHCG (five-point scale) ([1]; 250 g/Ha): 0
percentage damage caused to the plant, ECHCG (five-point scale) ([1]; 1000 g/ha): 1 (1=0-20%)
percentage damage caused to the plant, AMAPA (five-point scale) ([2]; 250 g/Ha): 1 (1=0-20%)
percentage damage caused to the plant, AMAPA (five-point scale) ([2]; 1000 g/ha): 1 (1=0-20%)
percentage damage caused to the plant, IPOHE (five-point scale) ([3]; 250 g/Ha): 1 (1=0-20%)
percentage damage caused to the plant, IPOHE (five-point scale) ([3]; 1000 g/ha): 1 (1=0-20%)
percentage damage caused to the plant, AMARE (five-point scale) ([4]; 250 g/Ha): 1 (1=0-20%)
percentage damage caused to the plant, AMARE (five-point scale) ([4]; 1000 g/ha): 1 (1=0-20%)
percentage damage caused to the plant, SETFA (five-point scale) (Setaria faberi (SETFA); 250 g/Ha): 1 (1=0-20%)
percentage damage caused to the plant, SETFA (five-point scale) (Setaria faberi (SETFA); 1000 g/ha): 1 (1=0-20%)
percentage damage caused to the plant, ZEAMX (five-point scale) (Zea mays (ZEAMX); 250 g/Ha): 1 (1=0-20%)
percentage damage caused to the plant, ZEAMX (five-point scale) (Zea mays (ZEAMX); 1000 g/ha): 0

CCOC(=O)c1c(-c2ccc(Cl)c(Cl)c2)n(CC)c(Cn2cnc(C#N)n2)cc1=O [Compound 54, ethyl 6-[(3-cyano-1,2,4-triazol-1-yl)methyl]-2-(3,4-dichlorophenyl)-1-ethyl-4-oxo-pyridine-3-carboxylate]
percentage damage caused to the plant, ECHCG (five-point scale) ([1]; 1000 g/ha): 1 (1=0-20%)
percentage damage caused to the plant, AMAPA (five-point scale) ([2]; 1000 g/ha): 1 (1=0-20%)
percentage damage caused to the plant, IPOHE (five-point scale) ([3]; 1000 g/ha): 0
percentage damage caused to the plant, AMARE (five-point scale) ([4]; 1000 g/ha): 1 (1=0-20%)
percentage damage caused to the plant, SETFA (five-point scale) (Setaria faberi (SETFA); 1000 g/ha): 1 (1=0-20%)
percentage damage caused to the plant, ZEAMX (five-point scale) (Zea mays (ZEAMX); 1000 g/ha): 1 (1=0-20%)

CCn1c(Cn2cnc(C(=O)OC)c2C(=O)OC)cc(=O)c(C(=O)O)c1-c1ccc(Cl)c(Cl)c1 [Compound 111, 6-[[4,5-bis(methoxycarbonyl)imidazol-1-yl]methyl]-2-(3,4-dichlorophenyl)-1-ethyl-4-oxo-pyridine-3-carboxylic acid]
percentage damage caused to the plant, ECHCG (five-point scale) ([1]; 1000 g/ha): 2 (2=21-40%)
percentage damage caused to the plant, AMAPA (five-point scale) ([2]; 1000 g/ha): 1 (1=0-20%)
percentage damage caused to the plant, IPOHE (five-point scale) ([3]; 1000 g/ha): 0
percentage damage caused to the plant, AMARE (five-point scale) ([4]; 1000 g/ha): 1 (1=0-20%)
percentage damage caused to the plant, SETFA (five-point scale) (Setaria faberi (SETFA); 1000 g/ha): 1 (1=0-20%)
percentage damage caused to the plant, ZEAMX (five-point scale) (Zea mays (ZEAMX); 1000 g/ha): 0

CCn1c(Cn2cc3cc(Cl)ccc3n2)cc(=O)c(C(=O)O)c1-c1ccc(Cl)c(Cl)c1 [Compound 99, 6-[(5-chloroindazol-2-yl)methyl]-2-(3,4-dichlorophenyl)-1-ethyl-4-oxo-pyridine-3-carboxylic acid]
percentage damage caused to the plant, ECHCG (five-point scale) ([1]; 250 g/Ha): 1 (1=0-20%)
percentage damage caused to the plant, ECHCG (five-point scale) ([1]; 1000 g/ha): 0
percentage damage caused to the plant, AMAPA (five-point scale) ([2]; 250 g/Ha): 0
percentage damage caused to the plant, AMAPA (five-point scale) ([2]; 1000 g/ha): 0
percentage damage caused to the plant, IPOHE (five-point scale) ([3]; 250 g/Ha): 0
percentage damage caused to the plant, IPOHE (five-point scale) ([3]; 1000 g/ha): 1 (1=0-20%)
percentage damage caused to the plant, AMARE (five-point scale) ([4]; 250 g/Ha): 0
percentage damage caused to the plant, AMARE (five-point scale) ([4]; 1000 g/ha): 0
percentage damage caused to the plant, SETFA (five-point scale) (Setaria faberi (SETFA); 250 g/Ha): 0
percentage damage caused to the plant, SETFA (five-point scale) (Setaria faberi (SETFA); 1000 g/ha): 0
percentage damage caused to the plant, ZEAMX (five-point scale) (Zea mays (ZEAMX); 250 g/Ha): 0
percentage damage caused to the plant, ZEAMX (five-point scale) (Zea mays (ZEAMX); 1000 g/ha): 1 (1=0-20%)

CCn1c(Cn2ccc(-c3ccc(C)cc3)n2)cc(=O)c(C(=O)O)c1-c1ccc(Cl)c(Cl)c1 [Compound 196, 2-(3,4-dichlorophenyl)-1-ethyl-4-oxo-6-[[3-(p-tolyl)pyrazol-1-yl]methyl]pyridine-3-carboxylic acid]
Post-emergence Test ECHCG, percentage damage caused to the plant (five-point scale) ([1]; 250 g/Ha (*)): 1 (1=0-20%)
Post-emergence Test AMAPA, percentage damage caused to the plant (five-point scale) ([2]; 250 g/Ha (*)): 0
Post-emergence Test AMAPA, percentage damage caused to the plant (five-point scale) ([2]; 1000 g/ha): 0
Post-emergence Test IPOHE, percentage damage caused to the plant (five-point scale) ([3]; 250 g/Ha (*)): 0
Post-emergence Test IPOHE, percentage damage caused to the plant (five-point scale) ([3]; 1000 g/ha): 0
Post-emergence Test AMARE, percentage damage caused to the plant (five-point scale) ([4]; 250 g/Ha (*)): 0
Post-emergence Test AMARE, percentage damage caused to the plant (five-point scale) ([4]; 1000 g/ha): 0
Post-emergence Test SETFA, percentage damage caused to the plant (five-point scale) (Setaria faberi (SETFA); 1000 g/ha): 0
Post-emergence Test ZEAMX, percentage damage caused to the plant (five-point scale) (Zea mays (ZEAMX); 250 g/Ha (*)): 0
Post-emergence Test ZEAMX, percentage damage caused to the plant (five-point scale) (Zea mays (ZEAMX); 1000 g/ha): 1 (1=0-20%)

CCOC(=O)c1c(-c2ccc(Cl)c(Cl)c2)n(CC)c(Cn2cncn2)cc1=O [Compound 60, ethyl 2-(3,4-dichlorophenyl)-1-ethyl-4-oxo-6-(1,2,4-triazol-1-ylmethyl)pyridine-3-carboxylate]
percentage damage caused to the plant, ECHCG (five-point scale) ([1]; 1000 g/ha): 2 (2=21-40%)
percentage damage caused to the plant, AMAPA (five-point scale) ([2]; 1000 g/ha): 0
percentage damage caused to the plant, IPOHE (five-point scale) ([3]; 1000 g/ha): 1 (1=0-20%)
percentage damage caused to the plant, AMARE (five-point scale) ([4]; 1000 g/ha): 1 (1=0-20%)
percentage damage caused to the plant, SETFA (five-point scale) (Setaria faberi (SETFA); 1000 g/ha): 1 (1=0-20%)
percentage damage caused to the plant, ZEAMX (five-point scale) (Zea mays (ZEAMX); 1000 g/ha): 0

CCn1c(Cn2ccc(C(F)(F)F)n2)cc(=O)c(C(=O)O)c1-c1ccc(S(C)(=O)=O)c(Cl)c1 [Compound 129, 2-(3-chloro-4-methylsulfonyl-phenyl)-1-ethyl-4-oxo-6-[[3-(trifluoromethyl)pyrazol-1-yl]methyl]pyridine-3-carboxylic acid]
percentage damage caused to the plant, ECHCG (five-point scale) ([1]; 1000 g/ha): 1 (1=0-20%)
percentage damage caused to the plant, AMAPA (five-point scale) ([2]; 1000 g/ha): 0
percentage damage caused to the plant, IPOHE (five-point scale) ([3]; 1000 g/ha): 0
percentage damage caused to the plant, AMARE (five-point scale) ([4]; 1000 g/ha): 0
percentage damage caused to the plant, SETFA (five-point scale) (Setaria faberi (SETFA); 1000 g/ha): 0
percentage damage caused to the plant, ZEAMX (five-point scale) (Zea mays (ZEAMX); 1000 g/ha): 1 (1=0-20%)

CCn1c(Cn2cnc(Cl)c2Cl)cc(=O)c(C(=O)O)c1-c1ccc(Cl)c(Cl)c1 [Compound 126, 6-[(4,5-dichloroimidazol-1-yl)methyl]-2-(3,4-dichlorophenyl)-1-ethyl-4-oxo-pyridine-3-carboxylic acid]
percentage damage caused to the plant, ECHCG (five-point scale) ([1]; 250 g/Ha): 1 (1=0-20%)
percentage damage caused to the plant, ECHCG (five-point scale) ([1]; 1000 g/ha): 0
percentage damage caused to the plant, AMAPA (five-point scale) ([2]; 250 g/Ha): 0
percentage damage caused to the plant, AMAPA (five-point scale) ([2]; 1000 g/ha): 1 (1=0-20%)
percentage damage caused to the plant, IPOHE (five-point scale) ([3]; 250 g/Ha): 0
percentage damage caused to the plant, IPOHE (five-point scale) ([3]; 1000 g/ha): 0
percentage damage caused to the plant, AMARE (five-point scale) ([4]; 250 g/Ha): 0
percentage damage caused to the plant, AMARE (five-point scale) ([4]; 1000 g/ha): 0
percentage damage caused to the plant, SETFA (five-point scale) (Setaria faberi (SETFA); 250 g/Ha): 0
percentage damage caused to the plant, SETFA (five-point scale) (Setaria faberi (SETFA); 1000 g/ha): 0
percentage damage caused to the plant, ZEAMX (five-point scale) (Zea mays (ZEAMX); 250 g/Ha): 0
percentage damage caused to the plant, ZEAMX (five-point scale) (Zea mays (ZEAMX); 1000 g/ha): 1 (1=0-20%)

CCOC(=O)c1c(-c2ccc(Cl)c(Cl)c2)n(CC)c(Cn2ccc(C(F)(F)F)n2)c(Br)c1=O [Compound 23, ethyl 5-bromo-2-(3,4-dichlorophenyl)-1-ethyl-4-oxo-6-[[3-(trifluoromethyl)pyrazol-1-yl]methyl]pyridine-3-carboxylate]
percentage damage caused to the plant, ECHCG (five-point scale) ([1]; 1000 g/ha): 2 (2=21-40%)
percentage damage caused to the plant, AMAPA (five-point scale) ([2]; 1000 g/ha): 2 (2=21-40%)
percentage damage caused to the plant, IPOHE (five-point scale) ([3]; 1000 g/ha): 2 (2=21-40%)
percentage damage caused to the plant, AMARE (five-point scale) ([4]; 1000 g/ha): 1 (1=0-20%)
percentage damage caused to the plant, SETFA (five-point scale) (Setaria faberi (SETFA); 1000 g/ha): 2 (2=21-40%)
percentage damage caused to the plant, ZEAMX (five-point scale) (Zea mays (ZEAMX); 1000 g/ha): 1 (1=0-20%)
